Patent US8765799B2, “Streptospirole derivatives” (Sanofi, priority 2008, dated 2014)
Converted amounts (≈) assume the structure as drawn.

Key:
[1] = test system: M. smegmatis (ATCC 607); assay: Broth microdilution IC50 determination, M. smegmatis; format: cell-based, Mycobacterium smegmatis; conditions: Mycolicibacterium smegmatis, ATCC607, assay mode Lum. (ATP level), 48 h incubation
Description: (§1) A test which is based on determining the intracellular concentration of ATP is employed for measuring the bacterial viability. It relies on the fact that intact living bacteria have higher intra-cellular ATP levels than bacterial cells which are damaged by the action of antimicrobials. The formulation of the reagent supports bacterial cell lysis and ATP is quantified luminometrically by a luciferin/luciferase reaction. The compounds of the formula (I) are used in a test as further outlined in Examples section in a single dose of 0.125-64μg/ml and a dose dependency is given as a IC50 value in Table 6. This Example describes the standard broth dilution method-microdilution used to determine the in vitro susceptibility of bacteria growing aerobically according to NCCLS M7-A7. The IC50 value of the compound to be tested is calculated as the inhibitory concentration of 50% at which 50% visible turbidity or the ATP level is inhibited. Compound stock solutions were prepared at concentrations of at least 1000μg/ml with methanol. After testing, the stock solution is aliquoted and stored at −80° C. Nystatin was dissolved in DMSO and then further dissolved in the respective culture medium. For every test strain following controls on each 384 well clear-transparent microtitration plate are needed: • drug-free growth control, • sterile control, and • Ciprofloxacin and Nystatin as reference compounds. For Mycobacterium smegmatis a special 384 well white microtitration plate was used. For an IC50 determination at least ten or twenty serial dilutions (geometrical dilution with factor 2) were prepared. [table] […] The exact colony number of each strain was determined by a surface culture method. […] Reading: The reading of the grown wells was done by means of a photometer for microtitration plates at 590 nm by absorbance mode. For Mycobacterium smegmatis the microtitration plates were measured by luminescence mode after incubation with 20μl BacTiter-Glo™/well for 5 minutes at room temperature protected from light. Evaluation: The IC50 values were determined in XLfit 4, model function 205.

[2] = test system: S. aureus (ATCC 29213); assay: Broth microdilution IC50 determination, S. aureus ATCC 29213; format: cell-based; conditions: Staphylococcus aureus, ATCC29213, assay mode Abs. (590 nm), 20 h incubation
Procedure: as §1, with “The” for “A test which is based on determining the intracellular concentration of ATP is employed for measuring the bacterial viability. It relies on the fact that intact living bacteria have higher intra-cellular ATP levels than bacterial cells which are damaged by the action of antimicrobials. The formulation of the reagent supports bacterial cell lysis and ATP is quantified luminometrically by a luciferin/luciferase reaction. The”, “For” for “For Mycobacterium smegmatis a special 384 well white microtitration plate was used. For”, “[table] The usual test concentrations range from 64 to 0.125μg/ml or 64 to 0.0001μg/ml for strong inhibition. At the specification of the concentration the inoculation volume has to be considered. The whole test volume (compound solution and inoculum) was prepared with 40μl and accordingly for Mycobacterium smegmatis 20μl. The serial dilutions with Ciprofloxacin and Nystatin were prepared in special 384 well clear-transparent microtitration plate and were transferred in each 384 well microtitration plate before inoculation.” for “[table]”

[3] = test system: S. aureus (ATCC 33592); assay: Broth microdilution IC50 determination, S. aureus ATCC 33592; format: cell-based; conditions: Staphylococcus aureus, ATCC33592, assay mode Abs. (590 nm)
Procedure: as §1, with “The” for “A test which is based on determining the intracellular concentration of ATP is employed for measuring the bacterial viability. It relies on the fact that intact living bacteria have higher intra-cellular ATP levels than bacterial cells which are damaged by the action of antimicrobials. The formulation of the reagent supports bacterial cell lysis and ATP is quantified luminometrically by a luciferin/luciferase reaction. The”, “For” for “For Mycobacterium smegmatis a special 384 well white microtitration plate was used. For”, “The usual test concentrations range from 64 to 0.125μg/ml or 64 to 0.0001μg/ml for strong inhibition. At the specification of the concentration the inoculation volume has to be considered. The whole test volume (compound solution and inoculum) was prepared with 40μl and accordingly for Mycobacterium smegmatis 20μl. The serial dilutions with Ciprofloxacin and Nystatin were prepared in special 384 well clear-transparent microtitration plate and were transferred in each 384 well microtitration plate before inoculation.” for “[table]”

[4] = test system: E. faecalis (ATCC 29212); assay: Broth microdilution IC50 determination, E. faecalis; format: cell-based; conditions: Enterococcus faecalis, ATCC29212, assay mode Abs. (590 nm), 20 h incubation
Procedure: as §1, with “The” for “A test which is based on determining the intracellular concentration of ATP is employed for measuring the bacterial viability. It relies on the fact that intact living bacteria have higher intra-cellular ATP levels than bacterial cells which are damaged by the action of antimicrobials. The formulation of the reagent supports bacterial cell lysis and ATP is quantified luminometrically by a luciferin/luciferase reaction. The”, “For” for “For Mycobacterium smegmatis a special 384 well white microtitration plate was used. For”, “[table] The usual test concentrations range from 64 to 0.125μg/ml or 64 to 0.0001μg/ml for strong inhibition. At the specification of the concentration the inoculation volume has to be considered. The whole test volume (compound solution and inoculum) was prepared with 40μl and accordingly for Mycobacterium smegmatis 20μl. The serial dilutions with Ciprofloxacin and Nystatin were prepared in special 384 well clear-transparent microtitration plate and were transferred in each 384 well microtitration plate before inoculation.” for “[table]”

[5] = test system: S. pneumoniae (DSMZ 11865); assay: Broth microdilution IC50 determination, S. pneumoniae; format: cell-based; conditions: Streptococcus pneumoniae, DSMZ11865, assay mode Lum.
Description: as §1, with “For” for “For Mycobacterium smegmatis a special 384 well white microtitration plate was used. For”, “The usual test concentrations range from 64 to 0.125μg/ml or 64 to 0.0001μg/ml for strong inhibition.” for “[table]”

[6] = test system: S. pyogenes (ATCC 12344); assay: Broth microdilution IC50 determination, S. pyogenes; format: cell-based; conditions: Streptococcus pyogenes, ATCC12344, assay mode Abs. (590 nm), 20 h incubation
Procedure: as §1, with “The” for “A test which is based on determining the intracellular concentration of ATP is employed for measuring the bacterial viability. It relies on the fact that intact living bacteria have higher intra-cellular ATP levels than bacterial cells which are damaged by the action of antimicrobials. The formulation of the reagent supports bacterial cell lysis and ATP is quantified luminometrically by a luciferin/luciferase reaction. The”, “For” for “For Mycobacterium smegmatis a special 384 well white microtitration plate was used. For”, “[table] The usual test concentrations range from 64 to 0.125μg/ml or 64 to 0.0001μg/ml for strong inhibition. At the specification of the concentration the inoculation volume has to be considered. The whole test volume (compound solution and inoculum) was prepared with 40μl and accordingly for Mycobacterium smegmatis 20μl. The serial dilutions with Ciprofloxacin and Nystatin were prepared in special 384 well clear-transparent microtitration plate and were transferred in each 384 well microtitration plate before inoculation.” for “[table]”

Row | IC50 [1] | IC50 [2] | IC50 [3] | IC50 [4] | IC50 [5] | IC50 [6] | SMILES
1 | 0.4 µg/mL (≈ 1.04 µM) | 0.08 µg/mL (≈ 0.208 µM) | 0.03 µg/mL (≈ 0.0781 µM) | 0.87 µg/mL (≈ 2.26 µM) | 0.28 µg/mL (≈ 0.729 µM) | 0.28 µg/mL (≈ 0.729 µM) | CCCCCCc1c(O)ccc2c1O[C@]1(C2=O)C(Cl)=C(Cl)C(=O)N1C [(II), Streptospirole A]
2 | 0.09 µg/mL (≈ 0.226 µM) | 0.005 µg/mL (≈ 0.0126 µM) | 0.003 µg/mL (≈ 0.00753 µM) | 0.07 µg/mL (≈ 0.176 µM) | 0.21 µg/mL (≈ 0.527 µM) | 0.04 µg/mL (≈ 0.1 µM) | CC[C@H](C)CCCc1c(O)ccc2c1O[C@]1(C2=O)C(Cl)=C(Cl)C(=O)N1C [(IV), Streptospirole C]
3 | 0.26 µg/mL (≈ 0.677 µM) | 0.05 µg/mL (≈ 0.13 µM) | 0.02 µg/mL (≈ 0.052 µM) | 0.59 µg/mL (≈ 1.54 µM) | 0.34 µg/mL (≈ 0.885 µM) | 0.12 µg/mL (≈ 0.312 µM) | CC(C)CCCc1c(O)ccc2c1O[C@]1(C2=O)C(Cl)=C(Cl)C(=O)N1C [(III), Streptospirole B]
